US20110251379A1, “COMPOUNDS USEFUL FOR TREATING NEURODEGENERATIVE DISORDERS” (Satori Pharmaceuticals, Inc., priority 2010, published 2011)
Where two headings read alike, the source gives them in different places.

Legend:
Assay type in all cases: cell-based
Aβ-38 = assay: MSD Human (6E10) Ab 3-PLEX elisa, conditioned media of 2B7 cells: Aβ-38; conditions: Homo sapiens, Aβ-38 (superscript a)
Description: (§1) Assays were conducted to determine the ability of a Compound of Formula I to modulate […], and Aβ-38.
(§2) Plates with capture antibodies were blocked for 1-2 hours at room temperature with 150 μL of the manufactures blocking reagent.
(§3) Conditioned Media: • Cultured 2B7 cells in 96 well plate with 250 uL of media per well until confluent; • Prepared serial dilutions of compounds in DMSO at 100× the final desired concentration; • Washed wells with 2B7 cells 1× with 250 uL of media; • Diluted DMSO stocks 1:100 into media: • Added 250 μL of media containing compounds (1% DMSO) to wells with 2B7 cells for 5 hours at 37° C.
(§4) Elisa Sample Prep: • Diluted conditioned media: 1 part media with 1% DMSO and 1 part blocking buffer; • 150 μL of the 250 μL of conditioned media were used.
(§5) […] CURVE SAMPLE PREP: Prepared per manufacturer's protocol (see above) • Seven point standard curve samples were prepared that contained Aβ-42, Aβ-40, and Aβ-38. The highest concentration of Aβ-42 and Aβ-3-38 was 3,000 pg/mL and the highest concentration of Aβ-40 was 10,000 pg/mL. Subsequent serial dilutions were 1:3 and the final composition of each sample was 1 part blocking buffer and 1 part cell medium containing 1% DMSO.
(§6) Overnight Sample Incubation: • Blocked plates are washed 5× with MSD wash buffer with a plate washer • 25 uL of detection antibody and blocker G reagent in MSD blocking solution is added • 25 uL of samples (1 part conditioned media containing 1% DMSO and 1 part MSD blocking buffer) are then added. • plates are incubated overnight at 4 degrees C. or 2 hours at room temp
(§7) Final Wash and Readout: • Wash wells 5× with MSD wash buffer • Added 150 μL 2×MSD read buffer • Read with MSD imager.
(§8) A-Beta peptide levels for each peptide are calculated from the standard curve using the MSD software provided with the MSD 2400 Imager. Percent vehicle values for each compound dosage were then calculated and fit to a 4 parameter curve generating IC50 values.

Aβ-40 = assay: MSD Human (6E10) Ab 3-PLEX elisa, conditioned media of 2B7 cells: Aβ-40; conditions: for IC50 / inhibition at 20 µM: Homo sapiens; for IC50: Aβ-40 (superscript b)
Description: as §1, §2, §3, §4, §5, §6, §7, §8

Aβ-42 = assay: MSD Human (6E10) Ab 3-PLEX elisa, conditioned media of 2B7 cells: Aβ-42; conditions: Homo sapiens; for IC50: Aβ-42 (superscript c); for inhibition at 20 µM: Aβ-42, 20 μM
Description: as §1, §2, §3, §4, §5, §6, §7, §8

Row | SMILES | IC50 (Aβ-38; read-out: 50% reduction value) [nM] | IC50 (Aβ-40; read-out: 50% reduction value) [nM] | IC50 (Aβ-40; read-out: IC50 range) [nM] | IC50 (Aβ-42; read-out: 50% reduction value) [nM] | IC50 (Aβ-42; read-out: IC50 range) [nM] | IC50 (Aβ-38; read-out: IC50 range) [nM] | inhibition at 20 µM (Aβ-40; Aβ-40, 20 μM) [%] | % Inh. (range) (Aβ-40; Aβ-40, 20 μM) | inhibition at 20 µM (Aβ-42) [%]
1 | CCO[C@H](C(C)C)C1C[C@@H](C)[C@H]2C(O1)[C@H](O)[C@@]1(C)[C@@H]3CC[C@H]4C(C)(C)C(O[C@H]5CNCCO5)CC[C@@]45C[C@@]35CC[C@]21C (stereo partly shown) | 1000 to 10000 | 1000 to 10000 | 1000 to 10000 | 1000 to 10000 | 1000 to 10000 |  |  |  | 
2 | CCO[C@H](C(C)C)C1C[C@@H](C)[C@H]2C(O1)[C@H](O)[C@@]1(C)[C@@H]3CC[C@H]4C(C)(C)C(O)CC[C@@]45C[C@@]35CC[C@]21C (stereo partly shown) | 1000 to 10000 | 1000 to 10000 |  | 1000 to 10000 |  |  |  |  | 
3 | CC(C)[C@@H](OC(=O)C1CCC1)C1C[C@@H](C)[C@H]2C(O1)[C@H](O)[C@@]1(C)[C@@H]3CC[C@H]4C(C)(C)C(O)CC[C@@]45C[C@@]35CC[C@]21C (stereo partly shown) | < 1000 | 1000 to 10000 |  | < 1000 |  | 1000 to 10000 |  |  | 
4 | CC(C)CC(=O)O[C@@H](C1C[C@@H](C)[C@H]2C(O1)[C@H](O)[C@@]1(C)[C@@H]3CC[C@H]4C(C)(C)C(O)CC[C@@]45C[C@@]35CC[C@]21C)C(C)(C)O (stereo partly shown) | < 1000 | 1000 to 10000 |  | < 1000 |  | < 1000 |  |  | 
5 | CC(=O)OC[C@@]1(C)C[C@@H](C)[C@H]2C(O1)[C@H](O)[C@@]1(C)C3CC[C@H]4C(C)(C)C(O)CC[C@@]45C[C@@]35CC[C@]21C (stereo partly shown) | 1000 to 10000 | 1000 to 10000 |  | > 10000 |  |  |  |  | 
6 | CC(=O)O[C@@H](C1C[C@@H](C)C2C(O1)[C@H](O)[C@@]1(C)[C@@H]3CC[C@H]4C(C)(C)C(O)CC[C@@]45C[C@@]35CC[C@]21C)C(C)(C)C (stereo partly shown) | 1000 to 10000 |  |  | < 1000 |  |  | 25 to 75 |  | 
7 | CC(C)[C@@H](OC(=O)N1CCC1)C1C[C@@H](C)[C@H]2C(O1)[C@H](O)[C@@]1(C)C3CC[C@H]4C(C)(C)C(OC(=O)N5CC(C(=O)O)C5)CC[C@@]45C[C@@]35CC[C@]21C (stereo partly shown) | < 1000 | 1000 to 10000 |  | < 1000 |  |  |  |  | 
8 | CC(C)[C@@H](OC(=O)N1CCC1)C1C[C@@H](C)[C@H]2C(O1)[C@H](O)[C@@]1(C)C3CC[C@H]4C(C)(C)C(OC(=O)NC5CNC5)CC[C@@]45C[C@@]35CC[C@]21C (stereo partly shown) | < 1000 | 1000 to 10000 | 1000 to 10000 | < 1000 | < 1000 | < 1000 |  |  | 
9 | CCO[C@@H]([C@H]1C[C@@H](C)[C@H]2[C@H](O1)[C@H](O)[C@@]1(C)[C@@H]3CC[C@H]4C(C)(C)[C@@H](OC(=O)N5CC(C(=O)O)C5)CC[C@@]45C[C@@]35CC[C@]21C)C(C)(C)O | < 1000 | 1000 to 10000 | 1000 to 10000 | < 1000 | < 1000 | < 1000 |  |  | 
10 | CC(C)O[C@@H](C1C[C@@H](C)[C@H]2C(O1)[C@H](O)[C@@]1(C)C3CC[C@H]4C(C)(C)C(O[C@H]5CN(C6COC6)CCO5)CC[C@@]45C[C@@]35CC[C@]21C)C(C)(C)O (stereo partly shown) | < 1000 | 1000 to 10000 | 1000 to 10000 | < 1000 | < 1000 | < 1000 |  |  | 
11 | CCO[C@@H](C1C[C@@H](C)[C@H]2C(O1)[C@H](O)[C@@]1(C)C3CC[C@H]4C(C)(C)C(O[C@H]5CN(C6CCOCC6)CCO5)CC[C@@]45C[C@@]35CC[C@]21C)C(C)(C)O (stereo partly shown) | < 1000 | 1000 to 10000 | 1000 to 10000 | < 1000 | < 1000 | < 1000 |  |  | 
12 | CCO[C@@H](C1C[C@@H](C)[C@H]2C(O1)[C@H](O)[C@@]1(C)C3CC[C@H]4C(C)(C)C(O[C@H]5CN(C6CCOC6)CCO5)CC[C@@]45C[C@@]35CC[C@]21C)C(C)(C)O (stereo partly shown) | < 1000 | 1000 to 10000 |  | < 1000 | < 1000 |  |  |  | 
13 | CCO[C@@H](C1C[C@@H](C)[C@H]2C(O1)[C@H](O)[C@@]1(C)C3CC[C@H]4C(C)(C)C(OC(N)=O)CC[C@@]45C[C@@]35CC[C@]21C)C(C)(C)O (stereo partly shown) | < 1000 | 1000 to 10000 |  | < 1000 | < 1000 |  |  |  | 
14 | CCO[C@@H](C1C[C@@H](C)[C@H]2C(O1)[C@H](O)[C@@]1(C)C3CC[C@H]4C(C)(C)C(OC(=O)NC)CC[C@@]45C[C@@]35CC[C@]21C)C(C)(C)O (stereo partly shown) | < 1000 |  |  | < 1000 |  |  | > 75 |  | 
15 | C=C(C)CO[C@@H](C1C[C@@H](C)[C@H]2C(O1)[C@H](O)[C@@]1(C)C3CC[C@H]4C(C)(C)C(OC(=O)NC5CNC5)CC[C@@]45C[C@@]35CC[C@]21C)C(C)(C)O (stereo partly shown) | < 1000 | 1000 to 10000 | > 10000 | < 1000 | < 1000 |  |  |  | 
16 | CC(C)CO[C@@H](C1C[C@@H](C)[C@H]2C(O1)[C@H](O)[C@@]1(C)C3CC[C@H]4C(C)(C)C(OC(=O)NC5CNC5)CC[C@@]45C[C@@]35CC[C@]21C)C(C)(C)O (stereo partly shown) | 1000 to 10000 | 1000 to 10000 |  | < 1000 | < 1000 |  |  |  | 
17 | CC(C)CO[C@@H](C1C[C@@H](C)[C@H]2C(O1)[C@H](O)[C@@]1(C)C3CC[C@H]4C(C)(C)C(OC(=O)NC5CN(C=O)C5)CC[C@@]45C[C@@]35CC[C@]21C)C(C)(C)O (stereo partly shown) | 1000 to 10000 | 1000 to 10000 | 1000 to 10000 | < 1000 | 1000 to 10000 |  |  |  | 
18 | CCO[C@@H](C1C[C@@H](C)[C@H]2C(O1)[C@H](O)[C@@]1(C)C3CC[C@H]4C(C)(C)C(OC(=O)N5CC[C@H](C(=O)O)C5)CC[C@@]45C[C@@]35CC[C@]21C)C(C)(C)O (stereo partly shown) | 1000 to 10000 | > 10000 |  | < 1000 | < 1000 |  |  |  | 
19 | CCO[C@@H](C1C[C@@H](C)[C@H]2C(O1)[C@H](O)[C@@]1(C)C3CC[C@H]4C(C)(C)C(OC(=O)N5CC[C@@H](C(=O)O)C5)CC[C@@]45C[C@@]35CC[C@]21C)C(C)(C)O (stereo partly shown) | 1000 to 10000 | > 10000 |  | < 1000 | < 1000 |  |  |  | 
20 | CCO[C@@H](C1C[C@@H](C)[C@H]2C(O1)[C@H](O)[C@@]1(C)C3CC[C@H]4C(C)(C)C(O[C@H]5CN(CCC(=O)O)CCO5)CC[C@@]45C[C@@]35CC[C@]21C)C(C)(C)O (stereo partly shown) | < 1000 | 1000 to 10000 |  | < 1000 | < 1000 |  |  |  | 
21 | CCO[C@@H](C1C[C@@H](C)[C@H]2C(O1)[C@H](O)[C@@]1(C)C3CC[C@H]4C(C)(C)C(O[C@H]5CN(CCCC(=O)O)CCO5)CC[C@@]45C[C@@]35CC[C@]21C)C(C)(C)O (stereo partly shown) | 1000 to 10000 | 1000 to 10000 |  | < 1000 | < 1000 | 1000 to 10000 |  |  | 
22 | CCO[C@@H](C1C[C@@H](C)[C@H]2C(O1)[C@H](O)[C@@]1(C)C3CC[C@H]4C(C)(C)C(O[C@H]5CN([C@@H](C)C(=O)O)CCO5)CC[C@@]45C[C@@]35CC[C@]21C)C(C)(C)O (stereo partly shown) | < 1000 | > 10000 |  | < 1000 | < 1000 |  |  |  | 
23 | CCO[C@@H]([C@H]1C[C@@H](C)[C@H]2[C@H](O1)[C@H](O)[C@@]1(C)C3CC[C@H]4C(C)(C)C(OC(=O)N5CCC5)CC[C@@]45C[C@@]35CC[C@]21C)C(C)(C)O (stereo partly shown) | < 1000 |  |  | < 1000 | < 1000 | 1000 to 10000 |  | E/F^b (20 μM) | 
24 | CCO[C@@H]([C@H]1C[C@@H](C)[C@H]2[C@H](O1)[C@H](O)[C@@]1(C)C3CC[C@H]4C(C)(C)C(OC(=O)NC5COC5)CC[C@@]45C[C@@]35CC[C@]21C)C(C)(C)O (stereo partly shown) | < 1000 | 1000 to 10000 |  | < 1000 | < 1000 |  |  |  | 
25 | CCO[C@@H]([C@H]1C[C@@H](C)[C@H]2[C@H](O1)[C@H](O)[C@@]1(C)C3CC[C@H]4C(C)(C)C(OC(=O)NC5CNC5)CC[C@@]45C[C@@]35CC[C@]21C)C(C)(C)O (stereo partly shown) | < 1000 | 1000 to 10000 | > 10000 | < 1000 | < 1000 |  |  |  | 
26 | CCS[C@@H](C1C[C@@H](C)C2C(O1)[C@H](O)[C@@]1(C)C3CC[C@H]4C(C)(C)C(O[C@H]5CN(C6COC6)CCO5)CC[C@@]45C[C@@]35CC[C@]21C)C(C)(C)O (stereo partly shown) | 1000 to 10000 | > 10000 |  |  |  |  |  |  | 25 to 75
27 | CC(C)OC(C)(C)[C@H](O)C1C[C@@H](C)[C@H]2C(O1)[C@H](O)[C@@]1(C)C3CC[C@H]4C(C)(C)C(O)CC[C@@]45C[C@@]35CC[C@]21C (stereo partly shown) | 1000 to 10000 | > 10000 |  |  |  |  |  |  | 25 to 75
28 | CCOC(C)(C)[C@H](O)C1C[C@@H](C)[C@H]2C(O1)[C@H](O)[C@@]1(C)C3CC[C@H]4C(C)(C)C(O)CC[C@@]45C[C@@]35CC[C@]21C (stereo partly shown) | 1000 to 10000 | > 10000 |  |  |  |  |  |  | < 25
